The values that follow come from publication PMC7355430, “Imunofan—RDKVYR Peptide—Stimulates Skin Cell Proliferation and Promotes Tissue Repair” (Molecules, 2020).

Peptide text beside a SMILES is read from it.

Data set [1] deals with ASCs from donor 6. Description: RNA sequencing with ingenuity pathway analysis (IPA). Type of data set: cell-based, human. The following applies: ASCs donor 6, 0.1 µg/mL IM. The protocol:
Cell stimulation was performed as previously described. Primary fibroblasts after the third passage and ASCs after the second passage were cultured in appropriate DMEM medium supplemented with 10% FBS for 24 h. Then, the medium was changed for DMEM with 5% FBS and 24-h incubation was performed. After another medium change for serum-free, cells were stimulated with IM peptide (0.1 µg/mL) for 48 h. Cell cultures deprived of FBS for 48 h were used as a control. After stimulation, the cells were trypsinized, collected, and centrifuged, and the pellet was kept frozen (−80 °C) for transcriptome analysis and transcript level analysis.
For three plastic surgery donors (donor 6, donor 11, and donor 12) ASCs (3–4.5 × 10^5 cells) after passage P2, namely cultures stimulated for 48 h with 0.1 µg/mL IM, or control cultured with FBS-deprived medium, were trypsinized, washed, and snap frozen for transcriptome analysis (see Supplementary Table S5 for clinical information). The pellets were stored at −80 °C prior to RNA isolation. RNA was isolated using a miRNeasy Mini Kit (Qiagen, Hilden, Germany) with two modifications of the original protocol: (i) chloroform was substituted with 1-bromo-3-chloropropane to prevent foaming and emulsification, and (ii) the elution was done with 40 µl of water followed by another elution with the entire volume of the original eluate. The quality and concentration of RNA was assessed using a Bioanalyzer 2100 Instrument and RNA 6000 Nano Kit (Agilent, Waldbronn, Germany). The average RNA yield was 2 µg. Samples with RIN (RNA Integrity Number) >8.0 were used for further transcriptome analysis.
A ribosome reduction kit (Arraystar Inc, Rockville, MD, USA) and SureSelect Strand Specific mRNA library kit (Agilent, Santa Clara, CA, USA) were used for next generation sequencing (NGS) library preparation according to standard procedures. The cDNA libraries were quantitated using qPCR in a Roche LightCycler 480 with the Kapa Library Quantification Kit for Illumina platforms (Kapa Biosystems, Woburn, MA, USA). Onboard cluster generation and 50 nt paired end RNA sequencing were performed on an Illumina HiSeq2500 device using Rapid Run v2 sequencing chemistry and flow cells as recommended by the manufacturer (Illumina Inc., San Diego, CA, USA). Paired end 50 bp sequencing runs were completed and the data was converted to the FASTQ Sanger format. Trim Galore was used to remove residual adapter sequences from the reads (https://www.bioinformatics.babraham.ac.uk). Sequencing reads were aligned to the human reference genome assembly (hg19) using TopHat. Further analysis was performed according to workflow for Cufflinks version 2.2.0 and higher. Transcript assembly and estimation of the relative abundances were carried out with Cufflinks using the following settings: Quartile normalization method for the libraries, blind dispersion method for replicates, and biased correction using canonical hg19 as reference. Cuffmerge and Cuffquant were then performed, followed by final comparison analysis in Cuffdiff. […] Differentially expressed genes (DGE) were grouped in functional pathways using ingenuity pathway analysis (IPA Spring Release 2017, QIAGEN, Hilde, Germany) on a gene level, using RefSeq annotation.

The subject of data set [2] is human lymphocyte cultures. The following applies: cited from earlier work. From the text:
Peptides play an important role in immunology, often through being epitopes for adaptive immune systems. Besides, they take part in mobilizing immune cells. […] Unfortunately, application of synthetic peptides can lead to unwanted immune activation or allergies and immunogenicity or immune-related adverse effects can limit the effectiveness of peptide-based therapies [[35],[36],[37 ...

Data set [3] has as its system primary cortical neural cultures. Description: Neural viability, CellTiterBlue assay. The class given is cell-based, Wistar rat. Conditions: 1, 10, 100, 200 µM, 20 h, 37 °C; CellTiterBlue (Figure S6). Here is the method: Neural viability assessments. Primary cortical neural cultures were obtained from E18.5 Wistar rat embryos. For this purpose, the rat was euthanized in a CO2 chamber. The cortex tissue was immediately excised from the brain, moved to a HBSS medium (diluted 10 × and supplemented with a penicilin/streptomycin mixture), and washed precisely. Afterwards, the tissue was trypsinized for 10 min at 37 °C, and homogenized gently. […] Neural viability was quantitatively examined by CellTiterBlue® (CTB) assay (Promega, G8080) after 20-hour long incubation of the cells at 37 °C in the CO2. […] Fluorescence intensity of the CTB reagent is measured spectrofluorymetrically (560ex/590em) and is proportional to the number of viable cells. No insult sample referred as a 100% viability control and the data from the insulted cells was quantified and presented relatively as mean ± SD. The data was analyzed by a Mann-Whitney test with p-value < 0.05 values considered statistically significant. […]
Influence of Imunofan on neural viability. Influence of Imunofan on neural viability was assessed by exposing the cells to different peptide concentrations (1, 10, 100, 200 µM) for 20 h at 37 °C in a 5% CO2 chamber. […]

The mark [4] stands for this setting: 48 h vs FBS-deprived medium, IPA disease and function mode.

For the compound `CC(C)[C@H](NC(=O)[C@H](CCCCN)NC(=O)[C@H](CC(=O)O)NC(=O)[C@@H](N)CCCNC(=N)N)C(=O)N[C@@H](Cc1ccc(O)cc1)C(=O)N[C@@H](CCCNC(=N)N)C(=O)O` [IM, H-Arg-Asp-Lys-Val-Tyr-Arg-OH] (H-RDKVYR-OH), the “consistency score of the IPA regulatory network” value in data set [1] (48 h, highest consistency score (Figure S10A)) amounted to 29.69. Besides, in data set [1] (setting [4]), the “Predicted Direction of Change: Activation of cells” value was “Activation”, the “Predicted Direction of Change: Binding of neutrophils” value is reported as “Activation”, the “Predicted Direction of Change: Cell migration of granulocytes” value is on record as “Activation” and the “Predicted Direction of Change: Cell migration of neutrophils” value is “Activation”. For the same compound, in data set [1] (setting [4]), the “Predicted Direction of Change: Cell movements” value is “Activation”, the “Predicted Direction of Change: Chemotaxis” value was “Activation”, the “Predicted Direction of Change: Immune response” value is “Activation” and the “Predicted Direction of Change: Migration of cells” value is “Activation”. In data set [1] (setting [4]), the “Predicted Direction of Change: Migration of endothelium cells” value is recorded as “Activation”, the “Predicted Direction of Change: Permeability of endothelium cells” value is given as “Activation”, the “Predicted Direction of Change: RNA transactivation” value is recorded as “Activation” and the “Predicted Direction of Change: Secretion of lipids” value was “Activation”. Further, in data set [1] (setting [4]), the “Predicted Direction of Change: Synthesis of fatty acids” value is “Activation” and the “Predicted Direction of Change: Synthesis of nitric oxide” value is listed as “Activation”. In addition, the “synthesis of IgE” value in data set [2] is listed as “suppress the synthesis”. Further, the “production of IgM, IgG, and IgA” value in data set [2] (following stimulation with pokeweed mitogen) is “increase the production”. The “toxicity to primary neural cells (viability)” value in data set [3] is listed as “not toxic”.
